Experimental data as given in patent US8134015B2, “Compound inhibiting in vivo phosphorous transport and medicine containing the same” (Kyowa Hakko Kirin Co., Ltd., priority 2003, dated 2012).

Biological target: T1, rat NaPi-2b (Rattus norvegicus, UniProt Q9JJ09)
T1 construct: expressed in transfected cells; host or cells: Xenopus oocytes injected with cRNA
T1 sequence (Q9JJ09 1-695): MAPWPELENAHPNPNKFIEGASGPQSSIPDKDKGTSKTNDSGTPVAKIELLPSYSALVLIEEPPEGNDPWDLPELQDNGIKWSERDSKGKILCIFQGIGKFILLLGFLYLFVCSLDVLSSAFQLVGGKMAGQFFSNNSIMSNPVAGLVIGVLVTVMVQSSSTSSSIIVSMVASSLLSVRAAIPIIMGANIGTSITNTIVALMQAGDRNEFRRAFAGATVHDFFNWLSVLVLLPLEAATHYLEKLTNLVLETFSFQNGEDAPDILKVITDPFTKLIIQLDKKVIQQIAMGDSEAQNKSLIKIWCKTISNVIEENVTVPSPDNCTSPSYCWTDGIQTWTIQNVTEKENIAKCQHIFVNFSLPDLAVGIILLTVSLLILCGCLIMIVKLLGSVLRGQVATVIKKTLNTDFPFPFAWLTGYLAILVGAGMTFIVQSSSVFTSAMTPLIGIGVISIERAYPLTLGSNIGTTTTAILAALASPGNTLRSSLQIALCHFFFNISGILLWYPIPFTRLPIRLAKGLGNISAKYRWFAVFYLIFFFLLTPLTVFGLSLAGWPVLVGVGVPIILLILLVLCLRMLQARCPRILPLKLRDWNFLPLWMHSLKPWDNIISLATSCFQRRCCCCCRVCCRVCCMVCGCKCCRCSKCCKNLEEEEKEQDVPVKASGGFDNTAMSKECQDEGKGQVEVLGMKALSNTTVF
Experiment: Sodium-dependent phosphate uptake of Xenopus oocytes which expressed NaPi-2b (32P)
Format: cell-based
Conditions: Xenopus oocytes expressing rat NaPi-2b, 32P radioactive phosphorus; read-out: IC50 (phosphate uptake inhibitory activity)
In short: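 Rat NaPi-2b cloned from small-intestine cDNA; cRNA injected into Xenopus oocytes, expression for 2 days. Phosphate uptake inhibition measured with 32P; percent inhibition at 300 μM and 100 μM read from the same inhibition curve.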

Row | Compound | IC50
1 | COc1ccc(/C(C)=N/NC(=O)c2cc(Br)ccc2NC(=O)c2cccc(CN(CC(C)O)CC(C)O)c2)cc1 (centres unmarked) [Compound 997, 3-{[Bis-(2-hydroxy-propyl)-amino]-methyl}-N-{4-bromo-2-[1-(4-methoxy-phenyl)-ethylidene-hydrazinocarbonyl]-phenyl}-benzamide] | 7.88 µM
2 | CC(O)CN(Cc1cccc(C(=O)Nc2ccc(Cl)cc2C(=O)N/N=C/c2ccc(OCCCN(C)C)cc2)c1)CC(C)O (centres unmarked) [Compound 998, 3-{[Bis-(2-hydroxy-propyl)-amino]-methyl}-N-{4-chloro-2-[4-(3-dimethylamino-propoxy)-benzylidene-hydrazinocarbonyl]-phenyl}-benzamide] | 16.6 µM
3 | CCN(CC)CCN(C)Cc1cccc(C(=O)Nc2ccc(Cl)cc2C(=O)N/N=C/c2ccc(OCCCN(C)C)cc2)c1 [Compound 999, N-{4-Chloro-2-[4-(3-dimethylamino-propoxy)-benzylidene-hydrazinocarbonyl]-phenyl}-3-{[(2-diethylamino-ethyl)-methyl-amino]-methyl}-benzamide] | 58.2 µM
4 | CCN(CC)CCN(C)Cc1cccc(C(=O)Nc2sc3c(c2C(=O)N/N=C/c2ccc(OC(F)(F)F)cc2)CCCC3)c1 [Compound 1001, 3-{[(2-Diethylamino-ethyl)-methyl-amino]-methyl}-N-[3-(4-trifluoromethoxy-benzylidene-hydrazinocarbonyl)-4,5,6,7-tetrahydro-benzo[b]thiophen-2-yl]-benzamide] | < 3 µM
5 | CCN(CC)CCN(C)Cc1cccc(C(=O)Nc2sc3c(c2C(=O)N/N=C(\C)c2cccc(F)c2)CCCC3)c1 [Compound 1003, 3-{[(2-Diethylamino-ethyl)-methyl-amino]-methyl}-N-{3-[1-(3-fluoro-phenyl)-ethylidene-hydrazinocarbonyl]-4,5,6,7-tetrahydro-benzo[b]thiophen-2-yl}-benzamide] | 9.12 µM
6 | O=C(Nc1ccc(Cl)cc1C(=O)N/N=C/c1ccc(Cl)c(C(F)(F)F)c1)c1cnc2ccccc2n1 [Compound 1006, Quinoxaline-2-carboxylic acid[4-chloro-2-(4-chloro-3-trifluoromethyl-benzylidene-hydrazinocarbonyl)-phenyl]-amide] | 6.31 µM
7 | COCCOc1cc(NC(=O)c2cccc(CSCC(O)CO)c2)c(C(=O)N/N=C/c2cccc(F)c2)cc1OCCOC (centres unmarked) [Compound 1013, 3-(2,3-Dihydroxy-propylsulfanylmethyl)-N-[2-(3-fluoro-benzylidene-hydrazinocarbonyl)-4,5-bis-(2-methoxy-ethoxy)-phenyl]-benzamide] | 8.89 µM
8 | COCCOc1cc(NC(=O)c2cccc(CSCC(O)CO)c2)c(C(=O)N/N=C/c2ccc(C)c(C)c2)cc1OCCOC (centres unmarked) [Compound 1015, 3-(2,3-Dihydroxy-propylsulfanylmethyl)-N-[2-(3,4-dimethyl-benzylidene-hydrazinocarbonyl)-4,5-bis-(2-methoxy-ethoxy)-phenyl]-benzamide] | 11.1 µM
9 | COCCOc1cc(NC(=O)c2cccc(CSCC(O)CO)c2)c(C(=O)N/N=C/c2ccc(Cl)c(C(F)(F)F)c2)cc1OCCOC (centres unmarked) [Compound 1016, N-[2-(4-Chloro-3-trifluoromethyl-benzylidene-hydrazinocarbonyl)-4,5-bis-(2-methoxy-ethoxy)-phenyl]-3-(2,3-dihydroxy-propylsulfanylmethyl)-benzamide] | 9.23 µM
10 | COc1ccc(/C=N/NC(=O)c2cc(OC)ccc2NC(=O)c2cccc(CSCC(O)CO)c2)cc1 (centres unmarked) [Compound 1021, 3-(2,3-Dihydroxy-propylsulfanylmethyl)-N-[4-methoxy-2-(4-methoxy-benzylidene-hydrazinocarbonyl)-phenyl]-benzamide] | 5.57 µM
11 | CCN(CC)CCN(C)Cc1cccc(C(=O)Nc2ccc(OC)cc2C(=O)N/N=C/c2cccc(F)c2)c1 [Compound 1022, 3-{[(2-Diethylamino-ethyl)-methyl-amino]-methyl}-N-[2-(3-fluoro-benzylidene-hydrazinocarbonyl)-4-methoxy-phenyl]-benzamide] | 3.23 µM
12 | CCN(CC)CCN(C)Cc1cccc(C(=O)Nc2ccc(OC)cc2C(=O)N/N=C/c2ccc(OC)cc2)c1 [Compound 1024, 3-{[(2-Diethylamino-ethyl)-methyl-amino]-methyl}-N-[4-methoxy-2-(4-methoxy-benzylidene-hydrazinocarbonyl)-phenyl]-benzamide] | 3.94 µM
13 | CCN(CC)CCN(C)Cc1cccc(C(=O)Nc2ccc(OCCOC)cc2C(=O)N/N=C/c2cccc(F)c2)c1 [Compound 1025, 3-{[(2-Diethylamino-ethyl)-methyl-amino]-methyl}-N-[2-(3-fluoro-benzylidene-hydrazinocarbonyl)-4-(2-methoxy-ethoxy)-phenyl]-benzamide] | 5.71 µM

More lines, now with the values ahead:

Row | IC50 | Compound
14 | 2.58 µM | CCN(CC)CCN(C)Cc1cccc(C(=O)Nc2sc3c(c2C(=O)N/N=C/c2ccc(OCCO)cc2)CCCC3)c1 [Compound 1002, 3-{[(2-Diethylamino-ethyl)-methyl-amino]-methyl}-N-{3-[4-(2-hydroxy-ethoxy)-benzylidene-hydrazinocarbonyl]-4,5,6,7-tetrahydro-benzo[b]thiophen-2-yl}-benzamide]
15 | 0.4 µM | O=C(Nc1ccc(Cl)cc1C(=O)N/N=C/c1cccc(F)c1)c1cccc(CSCC(O)CO)c1 (centres unmarked) [Compound 1007, N-[4-Chloro-2-(3-fluoro-benzylidene-hydrazinocarbonyl)-phenyl]-3-(2,3-dihydroxy-propylsulfanylmethyl)-benzamide]
16 | 0.24 µM | O=C(Nc1ccc(Cl)cc1C(=O)N/N=C/c1ccc(Cl)c(C(F)(F)F)c1)c1cccc(CSCC(O)CO)c1 (centres unmarked) [Compound 1010, N-[4-Chloro-2-(4-chloro-3-trifluoromethyl-benzylidene-hydrazinocarbonyl)-phenyl]-3-(2,3-dihydroxy-propylsulfanylmethyl)-benzamide]
17 | 1.28 µM | COc1ccc(/C=N/NC(=O)c2cc(Cl)ccc2NC(=O)c2cccc(CSCC(O)CO)c2)cc1 (centres unmarked) [Compound 1011, N-[4-Chloro-2-(4-methoxy-benzylidene-hydrazinocarbonyl)-phenyl]-3-(2,3-dihydroxy-propylsulfanylmethyl)-benzamide]
18 | 1.89 µM | O=C(Nc1ccc(Cl)cc1C(=O)N/N=C/c1ccc(OC(F)(F)F)cc1)c1cccc(CSCC(O)CO)c1 (centres unmarked) [Compound 1012, N-[4-Chloro-2-(4-trifluoromethoxy-benzylidene-hydrazinocarbonyl)-phenyl]-3-(2,3-dihydroxy-propylsulfanylmethyl)-benzamide]
19 | 0.87 µM | COc1ccc(NC(=O)c2cccc(CSCC(O)CO)c2)c(C(=O)N/N=C/c2cccc(F)c2)c1 (centres unmarked) [Compound 1017, 3-(2,3-Dihydroxy-propylsulfanylmethyl)-N-[2-(3-fluoro-benzylidene-hydrazinocarbonyl)-4-methoxy-phenyl]-benzamide]
20 | 0.92 µM | COc1ccc(NC(=O)c2cccc(CSCC(O)CO)c2)c(C(=O)N/N=C/c2ccc(C)cc2)c1 (centres unmarked) [Compound 1018, 3-(2,3-Dihydroxy-propylsulfanylmethyl)-N-[4-methoxy-2-(4-methyl-benzylidene-hydrazinocarbonyl)-phenyl]-benzamide]
21 | 0.41 µM | COc1ccc(NC(=O)c2cccc(CSCC(O)CO)c2)c(C(=O)N/N=C/c2ccc(C)c(C)c2)c1 (centres unmarked) [Compound 1019, 3-(2,3-Dihydroxy-propylsulfanylmethyl)-N-[2-(3,4-dimethyl-benzylidene-hydrazinocarbonyl)-4-methoxy-phenyl]-benzamide]
22 | 0.99 µM | CCN(CC)CCN(C)Cc1cccc(C(=O)Nc2ccc(OC)cc2C(=O)N/N=C/c2ccc(Cl)c(C(F)(F)F)c2)c1 [Compound 1023, N-[2-(4-Chloro-3-trifluoromethyl-benzylidene-hydrazinocarbonyl)-4-methoxy-phenyl]-3-{[(2-diethylamino-ethyl)-methyl-amino]-methyl}-benzamide]

Same assay, conditions: phosphate uptake, oocytes expressing rat NaPi-2b; 300 μM, determined from inhibition curve

Row | inhibition at 300 µM | Compound
23 | 32.1% | CCN(CC)CCN(C)Cc1cccc(C(=O)Nc2ccc(Cl)cc2C(=O)N/N=C/c2ccc(OCC(=O)O)cc2)c1 [Compound 1000, (4-{[5-Chloro-2-(3-{[(2-diethylamino-ethyl)-methyl-amino]-methyl}-benzoylamino)-benzoyl]-hydrazinomethyl}-phenoxy)-acetic acid]
24 | 34.2% | O=C(Nc1ccc(Cl)cc1C(=O)N/N=C/c1cccc(F)c1)c1cnc2ccccc2n1 [Compound 1004, Quinoxaline-2-carboxylic acid [4-chloro-2-(3-fluoro-benzylidene-hydrazinocarbonyl)-phenyl]-amide]
25 | 59.1% | Cc1ccc(/C=N/NC(=O)c2cc(Cl)ccc2NC(=O)c2cnc3ccccc3n2)cc1C [Compound 1005, Quinoxaline-2-carboxylic acid [4-chloro-2-(3,4-dimethyl-benzylidene-hydrazinocarbonyl)-phenyl]-amide]
26 | 55.2% | COCCOc1cc(NC(=O)c2cccc(CSCC(O)CO)c2)c(C(=O)N/N=C/c2ccc(C)cc2)cc1OCCOC (centres unmarked) [Compound 1014, N-[4,5-Bis-(2-methoxy-ethoxy)-2-(4-methyl-benzylidene-hydrazinocarbonyl)-phenyl]-3-(2,3-dihydroxy-propylsulfanylmethyl)-benzamide]
